Columns and labels:
AhR [1] = test: Receptor capture assay, real-time PCR, rodent cytosol as source of AhR; format: biochemical; conditions: TCDD 625 ppt
AhR [2] = molecular target: T1, AhR (Cavia porcellus, UniProt Q6J287); test: as above; format: biochemical; set-up: EC50 of dose-response curve; other: TCDD and BNF curves performed simultaneously; slope of dose-response curve; conditions: TCDD and BNF curves performed simultaneously
T1 sequence (Q6J287 1-846): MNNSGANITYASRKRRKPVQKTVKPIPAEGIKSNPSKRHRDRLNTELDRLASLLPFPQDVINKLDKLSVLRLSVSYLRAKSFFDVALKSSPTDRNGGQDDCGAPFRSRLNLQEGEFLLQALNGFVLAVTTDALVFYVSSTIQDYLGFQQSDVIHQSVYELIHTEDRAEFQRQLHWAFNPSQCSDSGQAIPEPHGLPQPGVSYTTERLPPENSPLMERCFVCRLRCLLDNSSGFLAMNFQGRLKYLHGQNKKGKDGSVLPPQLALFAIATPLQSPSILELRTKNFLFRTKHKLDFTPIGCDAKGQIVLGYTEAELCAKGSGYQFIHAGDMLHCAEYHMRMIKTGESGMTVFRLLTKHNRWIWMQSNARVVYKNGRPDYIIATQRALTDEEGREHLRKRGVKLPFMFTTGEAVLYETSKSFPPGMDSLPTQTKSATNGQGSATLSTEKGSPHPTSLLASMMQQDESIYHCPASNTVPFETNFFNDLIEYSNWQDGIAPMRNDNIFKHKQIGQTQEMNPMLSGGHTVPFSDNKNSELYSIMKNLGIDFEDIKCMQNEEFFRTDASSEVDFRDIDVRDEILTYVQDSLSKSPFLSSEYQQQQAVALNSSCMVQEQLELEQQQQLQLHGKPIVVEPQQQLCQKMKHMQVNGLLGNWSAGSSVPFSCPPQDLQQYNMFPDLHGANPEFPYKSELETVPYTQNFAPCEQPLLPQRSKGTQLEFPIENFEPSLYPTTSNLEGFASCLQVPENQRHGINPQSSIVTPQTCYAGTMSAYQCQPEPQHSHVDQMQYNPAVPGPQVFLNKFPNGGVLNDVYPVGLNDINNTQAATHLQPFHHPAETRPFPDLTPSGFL
Method: A set of calibrators consisting of 5000, 2500, 1250, […], 313, 156, and 78 parts per trillion (ppt or pg/ml) 2,3,7,8-tetrachlorodibenzo-p-dioxin (TCDD) was prepared in methanol. In addition to TCDD a set of calibrators for AhR agonist, beta-naphthoflavone (BNF) was prepared and analyzed in the assay. Separately, 25 ul of 1:50,000 dilution of 10 uM stock nucleic acid-tracer was added per 1 ml of rodent cytosol, which was the source of AhR, and was aliquoted into glass tubes. The standards were diluted 1:20 into 50-100 ul of rodent cytosol, and incubated for 1-2 hr at room temperature to 37° C. Following incubation, 40 to 100 ul of the reaction was transferred to each well of the antibody-coated Capture Strip and incubated on a shaking platform for 30 min to 1 hr at room temperature. The Capture Strips were washed 5 times with Wash Buffer B, and aspirated; optionally soaking wells for 30 sec-5 min with wash buffer during each cycle. Taqman® Universal PCR Master Mix, primers, and Taqman® probe (Applied Biosystems, Calif.) were added, and adhesive cover applied. PCR was performed and analyzed using an ABI PRISM® 7700, using default settings: 50° C., 2 min, 95° C. 10 min, and 40 cycles of [95° C., 15 sec, 60° C., 60 sec]. A threshold cycle (Ct) was determined for each reaction The Ct represents the PCR cycle at which an increase in reporter fluorescence above baseline signal can first be detected.

Ah receptor [3] = test: Detecting activated Ah receptor in nuclear extracts of treated Hepa 1c1c7 cells; format: cell-based, murine; conditions: Hepa 1c1c7 cells treated with 10 μM BNF for 1 hour
Method: Hepa 1c1c7 cells were grown until nearly confluent in Dulbecco's modified Eagle's medium and 8% fetal bovine serum. The cells were treated with 10 μM beta-naphthoflavone (BNF) in DMSO for 1 hour. The cells were then harvested after two washes with ice-cold PBS by centrifugation at 1000×g. The cells were then suspended in 5 packed cell pellet volumes of 10 mM Hepes, pH 7.5 and allowed to stand for 10 min.
The suspended cells were again collected by centrifugation and resuspended in two packed cell pellet volumes of 25 mM Hepes, pH 7.5, 3 mM MgCl2, 1 mM DTT and then lysed with 10 strokes of a Kontes all glass Dounce homogenizer (B type pestle). The resulting homogenate was checked microscopically to confirm cell lysis and then centrifuged for 10 min at 1000×g to pellet the nuclei.
The nuclear extract was prepared as follows. The nuclei were resuspended and incubated for 30 min in 25 mM Hepes, pH 7.5, 3 mM MgCl2, 1 mM DTT containing 0.4 M KCl. The suspension was occasionally vortexed during the 30 min incubation and centrifuged in a microfuge at high speed. Glycerol was added to the supernatant to a 10% concentration. The nuclear extract was diluted to lower the salt concentration prior to testing. The diluent was Hepa 1c1c7 cell extract that was previously boiled in order to inactivate protein factors and cooled to room temperature. […]

Ah receptor [4] = conditions: Carver et al., 1994 JBC 269:30109-30112; cited from earlier work

SMILES | Ct Values (AhR [1]) | slope of dose-response curve (AhR [2]) | PCR-amplified DNA over nuclear extracts from DMSO-treated cells (Ah receptor [3]) | affinity for the Ah receptor relative to TCDD (Ah receptor [4]) | EC50 (AhR [2]; read-out: EC50 of dose-response curve) [nM]
Clc1cc2c(cc1Cl)Oc1cc(Cl)c(Cl)cc1O2 [TCDD, 2,3,7,8-tetrachlorodibenzo-p-dioxin] | 22.23 | −1.195 | – | – | –
O=c1cc(-c2ccccc2)oc2ccc3ccccc3c12 [BNF, beta-naphthoflavone] | – | −0.7637 | significant and reproducible increase in PCR-amplified DNA | approximately an order of magnitude less affinity for the Ah receptor than TCDD | 0.04

Source: patent US20040259096A1, “Receptor capture assay” (priority 2001, published 2004)
